Measured values taken from ChEMBL document CHEMBL1132900, “Methaqualone derivatives are potent noncompetitive AMPA receptor antagonists” (Bioorg Med Chem Lett, 2000).

Molecular target: Glutamate receptor ionotropic, AMPA (Rattus norvegicus, UniProt P19490+P19491+P19492+P19493)
Description: Antagonist potency against functional AMPA receptor by kainate-induced Ca+2 in rat cerebellar granule neurons in primary culture

| SMILES | IC50 [µM] |
| --- | --- |
| Cc1ccc(C#N)c(/C(O)=C/c2nc3ccc(F)cc3c(=O)n2-c2ccccc2Cl)n1 | 0.0093 |
| N#Cc1cccnc1/C(O)=C/c1nc2ccc(F)cc2c(=O)n1-c1ccccc1Cl | 0.014 |
| N#Cc1ccccc1/C(O)=C/c1nc2ccc(F)cc2c(=O)n1-c1ccccc1Cl | 0.13 |
| O=c1c2ccccc2nc(/C=C(\O)c2ccccn2)n1-c1ccccc1Cl | 0.49 |
| O=c1c2cc(F)ccc2nc(/C=C(\O)c2ccccc2F)n1-c1ccccc1Cl | > 30 |
| O=c1c2ccccc2nc(/C=C(\O)c2ccncc2)n1-c1ccccc1Cl | 0.37 |
| Cc1cccc(/C(O)=C/c2nc3ccc(F)cc3c(=O)n2-c2ccccc2Cl)n1 | 5.5 |
| O=c1c2cc(F)ccc2nc(/C=C(\O)c2ccccn2)n1-c1ccccc1Cl | 0.25 |
| CC1=NN=C(c2ccc(N)cc2)c2cc3c(cc2C1)OCO3 [GYKI-52466] | 22 |
| Cc1nc2ccccc2c(=O)n1-c1ccccc1Cl [MECLOQUALONE] | > 10 |
| Cc1ccccc1-n1c(C)nc2ccccc2c1=O [METHAQUALONE] | > 10 |
